Values belong to the molecule of their own block, whether it stands above or below them.
Tests used:
[1] = Metabolic stability of rat liver microsomes assessed as parent compound remaining at 0.1 uM after 60 mins in presence of NADPH by LC/MS/MS analysis; type: ADME, microsome; conditions: read-out: Stability
[2] = target: CYP2C9 (Homo sapiens, UniProt P11712); assay: Inhibition of CYP2C9 in human liver microsomes at 10 uM after 20 mins in presence of NADPH by LC/MS/MS analysis relative to control; type: ADME
[3] = Metabolic stability of mouse liver microsomes assessed as parent compound remaining at 0.1 uM after 60 mins in presence of NADPH by LC/MS/MS analysis; type: ADME, microsome; conditions: read-out: Stability
[4] = target: CYP2C19 (Homo sapiens, UniProt P33261); assay: Inhibition of CYP2C19 in human liver microsomes at 10 uM after 40 mins in presence of NADPH by LC/MS/MS analysis relative to control; type: ADME
[5] = target: T1, Alcohol dehydrogenase class-3 (Homo sapiens, UniProt P11766); assay: Inhibition of human GSNOR assessed as reduction in NADH consumption after 3 mins by spectrophotometric analysis
Target sequence in this assay (P11766 whole entry): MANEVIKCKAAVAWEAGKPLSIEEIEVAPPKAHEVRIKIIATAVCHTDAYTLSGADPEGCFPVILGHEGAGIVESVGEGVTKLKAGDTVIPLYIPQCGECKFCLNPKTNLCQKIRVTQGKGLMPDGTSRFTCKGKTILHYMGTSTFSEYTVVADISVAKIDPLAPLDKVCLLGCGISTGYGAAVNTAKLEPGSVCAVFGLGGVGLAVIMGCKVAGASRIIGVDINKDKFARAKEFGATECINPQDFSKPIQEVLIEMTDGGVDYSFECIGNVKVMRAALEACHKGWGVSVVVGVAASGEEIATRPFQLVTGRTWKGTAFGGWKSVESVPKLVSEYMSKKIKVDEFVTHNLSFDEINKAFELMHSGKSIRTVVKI

[6] = target: CYP3A4 (Homo sapiens, UniProt P08684); assay: (§1) Inhibition of CYP3A4 in human liver microsomes at 10 uM after 20 mins in presence of NADPH by LC/MS/MS analysis relative to control; type: ADME; conditions: liver microsomes
[7] = Metabolic stability of human liver microsomes assessed as parent compound remaining at 0.1 uM after 60 mins in presence of NADPH by LC/MS/MS analysis; type: ADME, microsome; conditions: read-out: Stability
[8] = target: CYP2D6 (Homo sapiens, UniProt P10635); assay: (§2) Inhibition of CYP2D6 in human liver microsomes at 10 uM after 20 mins in presence of NADPH by LC/MS/MS analysis relative to control; type: ADME; conditions: liver microsomes
[9] = target: T2, CYP1A2 (Homo sapiens, UniProt P05177); assay: (§3) Inhibition of CYP1A2 in human liver microsomes at 10 uM after 20 mins in presence of NADPH by LC/MS/MS analysis relative to control; type: ADME; conditions: liver microsomes
T2 sequence (P05177 whole entry): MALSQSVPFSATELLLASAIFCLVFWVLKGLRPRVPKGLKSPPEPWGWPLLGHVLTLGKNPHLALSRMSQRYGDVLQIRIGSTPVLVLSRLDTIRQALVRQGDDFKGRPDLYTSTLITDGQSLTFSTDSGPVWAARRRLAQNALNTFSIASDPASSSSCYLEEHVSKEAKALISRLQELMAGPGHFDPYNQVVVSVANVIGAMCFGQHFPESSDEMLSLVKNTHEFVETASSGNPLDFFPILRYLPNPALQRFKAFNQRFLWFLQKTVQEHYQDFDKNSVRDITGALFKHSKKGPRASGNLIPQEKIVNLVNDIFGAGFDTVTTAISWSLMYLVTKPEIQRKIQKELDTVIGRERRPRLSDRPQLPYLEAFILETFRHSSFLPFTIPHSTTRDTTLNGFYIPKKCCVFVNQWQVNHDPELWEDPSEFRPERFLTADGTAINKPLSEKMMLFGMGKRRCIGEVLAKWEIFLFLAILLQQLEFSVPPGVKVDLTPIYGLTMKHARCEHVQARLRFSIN

[10] = tested on: Mus musculus; assay: Anti-inflammatory activity in C57BL/6 mouse model of cigarette smoke induced chronic obstructive pulmonary disease assessed as macrophages level in bronchoalveolar lavage at 5 mg/kg, po BID administered 1 hr prior to both smoke exposure for 7 days by Leishman's staining based assay; type: functional
[11] = tested on: Mus musculus; assay: Anti-inflammatory activity in C57BL/6 mouse model of cigarette smoke induced chronic obstructive pulmonary disease assessed as total leukocyte count in bronchoalveolar lavage at 5 mg/kg, po BID administered 1 hr prior to both smoke exposure for 7 days by hemocytometry; type: functional
[12] = tested on: Mus musculus; assay: Anti-inflammatory activity in C57BL/6 mouse model of cigarette smoke induced chronic obstructive pulmonary disease assessed as neutrophil level in bronchoalveolar lavage at 5 mg/kg, po BID administered 1 hr prior to both smoke exposure for 7 days by Leishman's staining based assay; type: functional
[13] = target: T1, Alcohol dehydrogenase class-3; assay: Inhibition of human GSNOR assessed as reduction in NADH consumption at 10 uM after 3 mins by spectrophotometric analysis relative to control
Target sequence in this assay (P11766 2-374 limits assumed): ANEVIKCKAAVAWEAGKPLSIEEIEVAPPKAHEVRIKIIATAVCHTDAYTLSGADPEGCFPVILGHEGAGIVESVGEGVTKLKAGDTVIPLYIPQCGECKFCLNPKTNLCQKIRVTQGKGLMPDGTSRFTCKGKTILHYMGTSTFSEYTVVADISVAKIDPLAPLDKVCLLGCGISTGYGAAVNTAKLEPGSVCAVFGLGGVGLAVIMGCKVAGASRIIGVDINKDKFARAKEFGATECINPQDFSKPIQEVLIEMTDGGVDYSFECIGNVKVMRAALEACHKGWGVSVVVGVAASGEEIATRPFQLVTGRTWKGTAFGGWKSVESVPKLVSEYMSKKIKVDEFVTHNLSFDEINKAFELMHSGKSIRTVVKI

[14] = target: Cytochrome P450 3A4 (Homo sapiens, UniProt P08684); assay: as §1; type: ADME; conditions: microsomes, 20 min, 10 µM
[15] = target: Cytochrome P450 2D6 (Homo sapiens, UniProt P10635); assay: as §2; type: ADME; conditions: microsomes, 20 min, 10 µM
[16] = target: T3, Cytochrome P450 1A2 (Homo sapiens, UniProt P05177); assay: as §3; type: ADME; conditions: microsomes, 20 min, 10 µM
T3 sequence (P05177 whole entry): T2 sequence (P05177 whole entry)

[17] = Cmax in C57/BL6 mouse at 30 mg/kg, po; type: ADME, organism-based; design: dose 30 mg/kg, route oral; conditions: in vivo
[18] = Half life in C57/BL6 mouse at 3 mg/kg, iv; type: ADME, organism-based; conditions: in vivo
[19] = Oral bioavailability in C57/BL6 mouse at 30 mg/kg; type: ADME, organism-based; conditions: in vivo
[20] = Volume of distribution in C57/BL6 mouse at 3 mg/kg, iv; type: ADME, organism-based; conditions: in vivo, read-out: Vz
[21] = AUC (0 to 24 hrs) in C57/BL6 mouse at 30 mg/kg, po; type: ADME, organism-based; design: time < 24 hr, dose 30 mg/kg, route oral; conditions: in vivo
[22] = Clearance in C57/BL6 mouse at 3 mg/kg, iv; type: ADME, organism-based; conditions: in vivo
[23] = Half life in C57/BL6 mouse at 30 mg/kg, po; type: ADME, organism-based; conditions: in vivo
[24] = Ratio of drug uptake in lung to plasma of C57/BL6 mouse at 3 mg/kg, iv or 30 mg/kg, po; type: ADME, organism-based
[25] = Tmax in C57/BL6 mouse at 30 mg/kg, po; type: ADME, organism-based; conditions: in vivo

Sequence of CYP2D6 (P10635 whole entry): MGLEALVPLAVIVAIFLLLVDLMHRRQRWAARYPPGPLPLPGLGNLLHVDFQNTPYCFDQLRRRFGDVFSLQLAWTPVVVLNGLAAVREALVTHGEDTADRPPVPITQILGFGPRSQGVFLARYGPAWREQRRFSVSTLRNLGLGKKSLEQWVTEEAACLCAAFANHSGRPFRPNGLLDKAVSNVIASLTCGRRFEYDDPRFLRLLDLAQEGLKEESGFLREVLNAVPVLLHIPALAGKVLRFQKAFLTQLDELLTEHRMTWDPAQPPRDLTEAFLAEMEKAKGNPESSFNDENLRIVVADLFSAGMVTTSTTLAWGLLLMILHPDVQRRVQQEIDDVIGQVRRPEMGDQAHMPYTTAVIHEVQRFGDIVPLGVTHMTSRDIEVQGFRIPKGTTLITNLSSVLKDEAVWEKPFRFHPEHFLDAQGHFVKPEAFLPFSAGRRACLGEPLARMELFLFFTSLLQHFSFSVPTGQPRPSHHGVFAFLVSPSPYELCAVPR
Sequence of CYP2C9 (P11712 whole entry): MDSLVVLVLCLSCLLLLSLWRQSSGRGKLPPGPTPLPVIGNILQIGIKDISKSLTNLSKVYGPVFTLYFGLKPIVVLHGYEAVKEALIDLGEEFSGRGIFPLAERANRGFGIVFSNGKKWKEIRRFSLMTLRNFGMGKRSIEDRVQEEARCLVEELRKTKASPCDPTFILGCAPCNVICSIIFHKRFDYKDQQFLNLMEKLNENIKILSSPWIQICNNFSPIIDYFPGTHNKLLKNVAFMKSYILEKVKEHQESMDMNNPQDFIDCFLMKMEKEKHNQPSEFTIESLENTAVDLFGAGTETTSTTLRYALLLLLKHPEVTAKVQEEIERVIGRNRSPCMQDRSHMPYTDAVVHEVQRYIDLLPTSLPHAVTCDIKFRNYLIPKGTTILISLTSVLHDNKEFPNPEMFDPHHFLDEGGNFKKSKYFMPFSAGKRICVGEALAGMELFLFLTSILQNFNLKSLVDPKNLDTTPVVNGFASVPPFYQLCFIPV
Sequence of CYP2C19 (P33261 whole entry): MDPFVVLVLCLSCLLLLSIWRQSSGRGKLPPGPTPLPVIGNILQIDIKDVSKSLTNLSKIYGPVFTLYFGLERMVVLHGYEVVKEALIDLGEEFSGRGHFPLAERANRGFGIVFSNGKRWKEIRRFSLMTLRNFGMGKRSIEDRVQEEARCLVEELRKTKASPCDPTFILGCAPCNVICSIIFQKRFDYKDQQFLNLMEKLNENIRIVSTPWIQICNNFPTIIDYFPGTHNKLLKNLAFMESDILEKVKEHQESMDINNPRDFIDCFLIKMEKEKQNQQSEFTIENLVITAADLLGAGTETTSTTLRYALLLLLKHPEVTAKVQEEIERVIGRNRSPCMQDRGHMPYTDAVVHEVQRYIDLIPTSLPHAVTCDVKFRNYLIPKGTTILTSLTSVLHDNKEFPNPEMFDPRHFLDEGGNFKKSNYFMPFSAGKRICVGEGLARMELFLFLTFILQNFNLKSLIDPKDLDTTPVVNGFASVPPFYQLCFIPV
Sequence of CYP3A4 (P08684 whole entry): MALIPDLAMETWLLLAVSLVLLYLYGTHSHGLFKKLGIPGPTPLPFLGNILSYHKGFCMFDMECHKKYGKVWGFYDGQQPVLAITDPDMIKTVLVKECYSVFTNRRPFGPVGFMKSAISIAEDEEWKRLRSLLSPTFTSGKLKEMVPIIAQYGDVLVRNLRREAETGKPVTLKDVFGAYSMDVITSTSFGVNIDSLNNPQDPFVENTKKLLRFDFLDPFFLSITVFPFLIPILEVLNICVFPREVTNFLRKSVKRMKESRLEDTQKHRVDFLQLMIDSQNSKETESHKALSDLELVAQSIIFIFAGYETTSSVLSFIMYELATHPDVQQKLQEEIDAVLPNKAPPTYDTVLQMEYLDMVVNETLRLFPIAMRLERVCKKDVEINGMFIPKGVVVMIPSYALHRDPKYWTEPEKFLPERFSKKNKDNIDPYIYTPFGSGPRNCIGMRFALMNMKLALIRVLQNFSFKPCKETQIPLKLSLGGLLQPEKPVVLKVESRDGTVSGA
Sequence of Cytochrome P450 2D6 (P10635 whole entry): as the sequence (P10635 whole entry) above
Sequence of Cytochrome P450 3A4 (P08684 whole entry): as the sequence (P08684 whole entry) above

SMILES: Cc1cc(-n2ccnc2)cnc1-c1ccc(-c2nnn[nH]2)cc1
remaining at 1 h, 0.1 µM [1]: 50%
inhibition at 20 min, 10 µM [2]: 61%
remaining at 1 h, 0.1 µM [3]: 17%
inhibition at 40 min, 10 µM [4]: 69%
IC50 [5]: 17 nM
inhibition at 20 min, 10 µM [6]: 17%
remaining at 1 h, 0.1 µM [7]: 94%
inhibition at 20 min, 10 µM [8]: 9%
inhibition at 20 min, 10 µM [9]: 1%

SMILES: Cc1nccn1-c1ccc(-c2ccc(-c3nnn[nH]3)cc2Cl)cc1
IC50 [5]: 37 nM

SMILES: O=C(Nc1c(Cl)cncc1Cl)c1ccc(OC(F)F)c(OCC2CC2)c1 [ROFLUMILAST]
Activity [10]: 75%
Activity [11]: 58%
Activity [12]: 40%

SMILES: CCc1cc(-n2ccnc2)ccc1-c1ccc(-c2nnn[nH]2)cc1F
remaining at 1 h, 0.1 µM [1]: 80%
inhibition at 20 min, 10 µM [2]: 78%
remaining at 1 h, 0.1 µM [3]: 78%
inhibition at 40 min, 10 µM [4]: 88%
IC50 [5]: 11 nM
inhibition at 20 min, 10 µM [6]: 30%
remaining at 1 h, 0.1 µM [7]: 97%
inhibition at 20 min, 10 µM [8]: 52%
inhibition at 20 min, 10 µM [9]: 41%

SMILES: Clc1cc(-c2nn[nH]n2)ccc1-c1ccc(-n2cnnn2)cc1
inhibition [13]: 36%

SMILES: FC(F)(F)c1cc(-c2nnn[nH]2)ccc1-c1ccc(-n2ccnc2)cc1
IC50 [5]: 39 nM

SMILES: Fc1cc(-c2nnn[nH]2)ccc1-c1ncc(-n2ccnc2)cc1Cl
inhibition at 20 min, 10 µM [2]: 50%
inhibition at 40 min, 10 µM [4]: 42%
IC50 [5]: 27 nM
inhibition (INH) [14]: Not Active
inhibition (INH) [15]: Not Active
inhibition (INH) [16]: Not Active

SMILES: N#Cc1ccc(-c2ccc(-c3nn[nH]n3)cc2)cc1
inhibition [13]: 27%

SMILES: Clc1cc(-n2ccnc2)ccc1-c1ccc(-c2nnn[nH]2)cc1
IC50 [5]: 22 nM

SMILES: CCc1cc(-n2ccnc2)cnc1-c1ccc(-c2nnn[nH]2)cc1F
IC50 [5]: 62 nM

SMILES: Cc1cc(-c2nnn[nH]2)ccc1-c1ncc(-n2ccnc2)cc1Cl
IC50 [5]: 935 nM

SMILES: Cc1cc(-n2ccnc2)cnc1-c1ccc(-c2nnn[nH]2)cc1F
Cmax [17]: 2560 ng/mL
half-life [18]: 1.9 h
remaining at 1 h, 0.1 µM [1]: 53%
inhibition at 20 min, 10 µM [2]: 60%
bioavailability [19]: 49%
remaining at 1 h, 0.1 µM [3]: 42%
inhibition at 40 min, 10 µM [4]: 45%
IC50 [5]: 14 nM
inhibition at 20 min, 10 µM [6]: 19%
Vd [20]: 2.8 L/kg
remaining at 1 h, 0.1 µM [7]: 100%
AUC(0-t) at 24 h [21]: 14200 ng·h/mL
inhibition at 20 min, 10 µM [8]: 12%
clearance [22]: 17 mL/min/kg
inhibition at 20 min, 10 µM [9]: -15%
half-life [23]: 5.3 h
Kp [24]: 0.62
Tmax [25]: 0.5 h

SMILES: O=C(O)c1ccc(-c2ccc(O)cc2)cc1
inhibition [13]: 25%

SMILES: Cc1cc(-n2ccnc2)ccc1-c1ccc(-c2nnn[nH]2)cc1Cl
inhibition at 20 min, 10 µM [2]: 83%
inhibition at 40 min, 10 µM [4]: 76%
IC50 [5]: 12 nM
inhibition at 20 min, 10 µM [6]: 43%
inhibition at 20 min, 10 µM [8]: 63%
inhibition at 20 min, 10 µM [9]: 47%

SMILES: Clc1cc(-c2nn[nH]n2)ccc1-c1ccc(-n2cnnc2)cc1
IC50 [5]: 593 nM

Further lines, results first:

IC50 [5]: 62 nM
SMILES: O=C(O)c1ccc(-c2ccc(-n3ccnc3)cc2)cc1

IC50 [5]: 59 nM
SMILES: O=C(O)c1ccc(-c2ccc(-n3ccnc3)cc2Cl)cc1

remaining at 1 h, 0.1 µM [1]: 58%
inhibition at 20 min, 10 µM [2]: 77%
remaining at 1 h, 0.1 µM [3]: 31%
inhibition at 40 min, 10 µM [4]: 69%
IC50 [5]: 22 nM
inhibition at 20 min, 10 µM [6]: 54%
remaining at 1 h, 0.1 µM [7]: 66%
inhibition at 20 min, 10 µM [8]: 73%
inhibition at 20 min, 10 µM [9]: 74%
SMILES: c1cn(-c2ccc(-c3ccc(-c4nn[nH]n4)cc3)cc2)cn1

inhibition [13]: 60%
SMILES: NC(=O)c1ccc(-c2ccc(-n3ccnc3)cc2)cc1

IC50 [5]: 214 nM
SMILES: O=C(O)c1ccc(-c2ccc(-n3ccnc3)cn2)cc1

IC50 [5]: 29 nM
SMILES: O=C(O)c1ccc(-c2ccc(-n3ccnc3)cc2)c(F)c1

Source: ChEMBL document CHEMBL4257571, “Discovery of 5-(2-chloro-4'-(1H-imidazol-1-yl)-[1,1'-biphenyl]-4-yl)-1H-tetrazole as potent and orally efficacious S-nitrosoglutathione reductase (GSNOR) inhibitors for the potential treatment of COPD” (Bioorg Med Chem Lett, 2018)
